Test results published in US11986532B2 (Arvinas Operations, Inc., priority 2021, dated 2024).
Read-outs that look alike come from different tables or passages of the source.

Target: T1, BCL6 (Homo sapiens, UniProt P41182)
T1 construct: endogenous in cells; host or cells: T47D breast cancer epithelial cells
Assay: Immunofluorescence protocol for high content imaging of BCL6 (degradation) in T47D cells, 3 days compound treatment
Type: cell-based
Details: for Dmax: read-out: Mean Dmax (%)** category; for DC50: read-out: Mean DC50 (nM)* category
How it was run: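 T47D cells in RPMI1640-10% FBS were treated with an 11-point 3-fold dilution series (final top 0.1 or 1 μM) for 3 days at 37° C. After PFA fixation and Triton permeabilization, cells were immunostained with rabbit anti-BCL6 (1:300, overnight 4° C), Alexa-488 secondary, CellMask-647 and Hoechst, then imaged at 10×, 4 fields/well.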

[1] = T47D cells, 3 days compound treatment

Row | Compound | DC50 [1] [nM] | Dmax [1] [%] | Dmax (T47D) [%] | DC50 [nM]
1 | CNC(=O)COc1cc2cc(Nc3nc(N4CCC(CN5CCN(c6ccc7c(c6F)CN(C6CCC(=O)NC6=O)C7=O)CC5)CC4)ncc3Cl)ccc2n(C(C)C)c1=O (stereo not drawn) [Compound 322, 2-{[6-({5-chloro-2-[4-({4-[2-(2,6-dioxopiperidin-3-yl)-4-fluoro-1-oxo-2,3-dihydro-1H-isoindol-5-yl]piperazin-1-yl}methyl)piperidin-1-yl]pyrimidin-4-yl}amino)-2-oxo-1-(propan-2-yl)-1,2-dihydroquinolin-3-yl]oxy}-N-methylacetamide] | – | – | 50 to 70 | < 10
2 | CNC(=O)COc1cc2cc(Nc3nc(N4CC5C(CN6CCN(c7ccc8c(c7)C(=O)N(C7CCC(=O)NC7=O)C8=O)CC6)C5C4)ncc3Cl)ccc2n(C(C)C)c1=O (stereo not drawn) [Compound 157, 2-{[6-({5-chloro-2-[6-({4-[2-(2,6-dioxopiperidin-3-yl)-1,3-dioxo-2,3-dihydro-1H-isoindol-5-yl]piperazin-1-yl}methyl)-3-azabicyclo [3.1.0]hexan-3-yl]pyrimidin-4-yl}amino)-2-oxo-1-(propan-2-yl)-1,2-dihydroquinolin-3-yl]oxy}-N-methylacetamide] | 10 to 50 | < 50 | – | –
3 | CNC(=O)COc1cc2cc(Nc3nc(N4CCC(O[C@H]5C[C@H](N6CCN(c7ccc8c(c7F)CN([C@H]7CCC(=O)NC7=O)C8=O)[C@H](C)C6)C5)CC4)ncc3Cl)ccc2n(C(C)C)c1=O [Compound 394, 2-({6-[(5-chloro-2-{4-[(1r,3r)-3-[(3R)-4-{2-[(3S)-2,6-dioxopiperidin-3-yl]-4-fluoro-1-oxo-2,3-dihydro-1H-isoindol-5-yl}-3-methylpiperazin-1-yl]cyclobutoxy]piperidin-1-yl}pyrimidin-4-yl)amino]-2-oxo-1-(propan-2-yl)-1,2-dihydroquinolin-3-yl}oxy)-N-methylacetamide] | – | – | ≥ 70 | < 10
4 | CNC(=O)COc1cc2cc(Nc3nc(N4CCC(O[C@H]5C[C@H](N6CC=C(c7ccc8c(c7Cl)CN([C@H]7CCC(=O)NC7=O)C8=O)CC6)C5)CC4)ncc3Cl)ccc2n(C(C)C)c1=O [Compound 428] | – | – | ≥ 70 | < 10
5 | CNC(=O)COc1cc2cc(Nc3nc(N4CCC(O[C@H]5C[C@H](N6CCN(c7cc(C)c8c(c7)C(=O)N(C7CCC(=O)NC7=O)C8=O)CC6)C5)CC4)ncc3Cl)ccc2n(C(C)C)c1=O (stereo partly drawn) [Compound 378, 2-({6-[(5-chloro-2-{4-[(1r,3r)-3-{4-[2-(2,6-dioxopiperidin-3-yl)-7-methyl-1,3-dioxo-2,3-dihydro-1H-isoindol-5-yl]piperazin-1-yl}cyclobutoxy]piperidin-1-yl}pyrimidin-4-yl)amino]-2-oxo-1-(propan-2-yl)-1,2-dihydroquinolin-3-yl}oxy)-N-methylacetamide] | – | – | 50 to 70 | 10 to 50
6 | CNC(=O)COc1cc2cc(Nc3nc(N4CCC(OC5CN([C@H]6CC[C@H](c7ccc8c(c7)C(=O)N(C7CCC(=O)NC7=O)C8=O)CC6)C5)CC4)ncc3Cl)ccc2n(C(C)C)c1=O (stereo partly drawn) [Compound 341, 2-{[6-({5-chloro-2-[4-({1-[(1r,4r)-4-[2-(2,6-dioxopiperidin-3-yl)-1,3-dioxo-2,3-dihydro-1H-isoindol-5-yl]cyclohexyl]azetidin-3-yl}oxy)piperidin-1-yl]pyrimidin-4-yl}amino)-2-oxo-1-(propan-2-yl)-1,2-dihydroquinolin-3-yl]oxy}-N-methylacetamide] | – | – | 50 to 70 | 10 to 50
7 | CNC(=O)COc1cc2cc(Nc3nc(N4CCC(O[C@H]5C[C@H](N6CC[C@H](c7ccc8c(c7)C(=O)N(C7CCC(=O)NC7=O)C8=O)[C@H](F)C6)C5)CC4)ncc3Cl)ccc2n(C(C)C)c1=O (mixture of isomers) [Compound 118] | 10 to 50 | 50 to 70 | – | –
8 | CNC(=O)COc1cc2cc(Nc3nc(N4CCC(O[C@H]5C[C@H](N6CC[C@@H](c7ccc8c(c7F)CN(C7CCC(=O)NC7=O)C8=O)C(C)(C)C6)C5)CC4)ncc3Cl)ccc2n(C(C)C)c1=O (stereo partly drawn) [Compound 430, 2-({6-[(5-chloro-2-{4-[(1r,3r)-3-[(4R)-4-[2-(2,6-dioxopiperidin-3-yl)-4-fluoro-1-oxo-2,3-dihydro-1H-isoindol-5-yl]-3,3-dimethylpiperidin-1-yl]cyclobutoxy]piperidin-1-yl}pyrimidin-4-yl)amino]-2-oxo-1-(propan-2-yl)-1,2-dihydroquinolin-3-yl}oxy)-N-methylacetamide] | – | – | ≥ 70 | < 10
9 | CNC(=O)COc1cc2cc(Nc3nc(N4CCC(O[C@H]5C[C@H](N6CCC(c7cc8c(cn7)C(=O)N(C7CCC(=O)NC7=O)C8)CC6)C5)CC4)ncc3Cl)ccc2n(C(C)C)c1=O (stereo partly drawn) [Compound 219, 2-({6-[(5-chloro-2-{4-[(1r,3r)-3-{4-[2-(2,6-dioxopiperidin-3-yl)-3-oxo-1H,2H,3H-pyrrolo[3,4-c]pyridin-6-yl]piperidin-1-yl}cyclobutoxy]piperidin-1-yl}pyrimidin-4-yl)amino]-2-oxo-1-(propan-2-yl)-1,2-dihydroquinolin-3-yl}oxy)-N-methylacetamide] | – | – | 50 to 70 | < 10
10 | CNC(=O)COc1cc2cc(Nc3nc(N4CCC(O[C@H]5C[C@H](N6CC=C(c7ccc8c(c7)CN(C7CCC(=O)NC7=O)C8=O)CC6)C5)CC4)ncc3Cl)ccc2n(C(C)C)c1=O (stereo partly drawn) [Compound 323, 2-({6-[(5-chloro-2-{4-[(1r,3r)-3-{4-[2-(2,6-dioxopiperidin-3-yl)-1-oxo-2,3-dihydro-1H-isoindol-5-yl]-1,2,3,6-tetrahydropyridin-1-yl}cyclobutoxy]piperidin-1-yl}pyrimidin-4-yl)amino]-2-oxo-1-(propan-2-yl)-1,2-dihydroquinolin-3-yl}oxy)-N-methylacetamide] | – | – | 50 to 70 | < 10
11 | CNC(=O)COc1cc2cc(Nc3nc(N4CCC(N5CCC56CN(C5CCCN(c7ccc8c(c7)CN(C7CCC(=O)NC7=O)C8=O)C5)C6)CC4)ncc3Cl)ccc2n(C(C)C)c1=O (stereo not drawn) [Compound 222, 2-{[6-({5-chloro-2-[4-(6-{1-[2-(2,6-dioxopiperidin-3-yl)-1-oxo-2,3-dihydro-1H-isoindol-5-yl]piperidin-3-yl}-1,6-diazaspiro[3.3]heptan-1-yl)piperidin-1-yl]pyrimidin-4-yl}amino)-2-oxo-1-(propan-2-yl)-1,2-dihydroquinolin-3-yl]oxy}-N-methylacetamide] | – | – | 50 to 70 | < 10
12 | CNC(=O)COc1cc2cc(Nc3nc(N4CCC(OC5CCC6(CC5)CN(c5ccc7c(c5C)CN(C5CCC(=O)NC5=O)C7=O)C6)CC4)ncc3Cl)ccc2n(C(C)C)c1=O (stereo not drawn) [Compound 402, 2-{[6-({5-chloro-2-[4-({2-[2-(2,6-dioxopiperidin-3-yl)-4-methyl-1-oxo-2,3-dihydro-1H-isoindol-5-yl]-2-azaspiro[3.5]nonan-7-yl}oxy)piperidin-1-yl]pyrimidin-4-yl}amino)-2-oxo-1-(propan-2-yl)-1,2-dihydroquinolin-3-yl]oxy}-N-methylacetamide] | – | – | ≥ 70 | < 10
13 | CNC(=O)COc1cc2cc(Nc3nc(C)ncc3Cl)ccc2n(CCOc2ccc3c(c2)C(=O)N(C2CCC(=O)NC2=O)C3=O)c1=O (stereo not drawn) [Compound 147, 2-({6-[(5-chloro-2-methylpyrimidin-4-yl)amino]-1-(2-{[2-(2,6-dioxopiperidin-3-yl)-1,3-dioxo-2,3-dihydro-1H-isoindol-5-yl]oxy}ethyl)-2-oxo-1,2-dihydroquinolin-3-yl}oxy)-N-methylacetamide] | < 10 | – | – | –
14 | CNC(=O)COc1cc2cc(Nc3nc(N4CCC(O[C@H]5C[C@H](N6CC[C@H](c7ccc8c(c7F)CN(C7CCC(=O)NC7=O)C8=O)[C@H](OC)C6)C5)CC4)ncc3Cl)ccc2n(C(C)C)c1=O (stereo partly drawn) [Compound 279, 2-({6-[(5-chloro-2-{4-[(1r,3r)-3-[(3S,4R)-4-[2-(2,6-dioxopiperidin-3-yl)-4-fluoro-1-oxo-2,3-dihydro-1H-isoindol-5-yl]-3-methoxypiperidin-1-yl]cyclobutoxy]piperidin-1-yl}pyrimidin-4-yl)amino]-2-oxo-1-(propan-2-yl)-1,2-dihydroquinolin-3-yl}oxy)-N-methylacetamide] | – | – | ≥ 70 | < 10
15 | CNC(=O)COc1cc2cc(Nc3nc(N4CCC(O[C@H]5C[C@H](N6CCC(c7ccc8c(c7F)CN(C7CCC(=O)NC7=O)C8=O)CC6)C5)CC4)ncc3Cl)ccc2n(C2CCCC2)c1=O (stereo partly drawn) [Compound 191, 2-({6-[(5-chloro-2-{4-[(1r,3r)-3-{4-[2-(2,6-dioxopiperidin-3-yl)-4-fluoro-1-oxo-2,3-dihydro-1H-isoindol-5-yl]piperidin-1-yl}cyclobutoxy]piperidin-1-yl}pyrimidin-4-yl)amino]-1-cyclopentyl-2-oxo-1,2-dihydroquinolin-3-yl}oxy)-N-methylacetamide] | < 10 | ≥ 70 | – | –

Now from value to molecule, other results behind:

Row | DC50 [1] [nM] | Dmax [1] [%] | Compound | Dmax (T47D) [%] | DC50 [nM]
16 | < 10 | ≥ 70 | CNC(=O)COc1cc2cc(Nc3nc(N4CCC(CN5CCC6(CC5)CN(c5ccc7c(c5F)CN(C5CCC(=O)NC5=O)C7=O)C6(C)C)CC4)ncc3Cl)ccc2n(C(C)C)c1=O (stereo not drawn) [Compound 162, 2-{[6-({5-chloro-2-[4-({2-[2-(2,6-dioxopiperidin-3-yl)-4-fluoro-1-oxo-2,3-dihydro-1H-isoindol-5-yl]-1,1-dimethyl-2,7-diazaspiro[3.5]nonan-7-yl}methyl)piperidin-1-yl]pyrimidin-4-yl}amino)-2-oxo-1-(propan-2-yl)-1,2-dihydroquinolin-3-yl]oxy}-N-methylacetamide] | – | –
17 | ≥ 100 | 50 to 70 | CNC(=O)COc1cc2cc(Nc3nc(N4CCC5(CC4)CC(C(C)(C)N4CCC(c6cccc7c6CN(C6CCC(=O)NC6=O)C7=O)CC4)C5)ncc3Cl)ccc2n(C(C)C)c1=O (stereo not drawn) [Compound 154, 2-{[6-({5-chloro-2-[2-(2-{4-[2-(2,6-dioxopiperidin-3-yl)-1-oxo-2,3-dihydro-1H-isoindol-4-yl]piperidin-1-yl}propan-2-yl)-7-azaspiro[3.5]nonan-7-yl]pyrimidin-4-yl}amino)-2-oxo-1-(propan-2-yl)-1,2-dihydroquinolin-3-yl]oxy}-N-methylacetamide] | – | –
